Data as given in PubChem BioAssay AID651617 (Broad Institute, 2012).

The compounds below were run on M. tuberculosis log-phase replicating growth, plate reader (assay: growth inhibition of replicating M. tuberculosis, dose response, counter-screen, dry powder (AID 651617)).
`c1ccc(-c2nnc(SCC3CC3)o2)cc1` was tested, and the IC90 was 125 µM.
`c1ccc(-c2nnc(SCc3cccnc3)o2)cc1` gave an IC90 of 125 µM.
For `[N-]=[N+]=NCCOCCNC(=O)CCCOc1ccc(CS(=O)c2nnc(-c3ccc(F)cc3)o2)nc1` (stereo not drawn), the IC90 was 125 µM.
